US20250002450A1, “CATIONIC STEROID COMPOUNDS, METHOD OF OBTAINING THEREOF, FORMULATIONS COMPRISING THEREOF AND THEIR USES” (UNIVERSIDADE DO PORTO, priority 2021, published 2025)
Values after ≈ are worked out from the molar mass of the structure shown. Read-outs that look alike come from different tables or passages of the source.

Key:
[1] = test system: Candida albicans ATCC 10231; experiment: Antifungal MIC/MLC (broth microdilution); assay type: cell-based
Text: (§1) Twenty-three fungal strains were used in this study, including reference strains and clinical isolates of yeasts and filamentous fungi. Yeast strains included reference strains (ATCC—American Type Culture Collection and CECT—Colección Española de Cultivos Tipo) and clinical isolates: C. albicans ATCC 10231, Candida krusei ATCC 6258, C. albicans H37, C. albicans FF172, C. albicans FF176, C. albicans DSY294, C. albicans DSY296, C. glabrata DSY562, C. glabrata DSY565 and Cryptococcus neoformans CECT 1078. Filamentous fungi included Aspergillus fumigatus ATCC 240305, A. fumigatus C111, A. niger ATCC 16404, A. flavus F44, Fusarium solani FF125, F. oxysporum FF115, and dermatophytes Trichophyton rubrum FF5, T. mentagrophytes FF7, Microscoporum canis FF1 and Nannizzia gypsea FF3 (formerly Microsporum gypseum) and a species of genera Mucor, Lichetheimia and Scedosporium. Saprolegnia parasitica CBS 223.65, a reference strain of an oomycete fish pathogen, was also included. All microorganisms were kept in Sabouraud Dextrose Broth (SDB: BioMérieux, Marcy L'Etoile, France) plus glycerol (20%) at −80° C. The strains were kept in Sabouraud Dextrose Agar (SDA: BioMérieux, Marcy L'Etoile, France) slants and were sub-cultured in SDA before each test. S. parasitica was kept in Corn Meal Agar plates (CMA: BBL™ Corn Meal Agar, BD, Le Pont-de-Claix, France) and was sub-cultured in CMA before each experiment. C. albicans H37, was kindly provided by Cidilia Pina Vaz (CHSJ, Porto, Portugal) and C. albicans DSY294, C. albicans DSY296, C. glabrata DSY562, C. glabrata DSY565 were kindly provided by D. Sanglard (University of Lausanne, Switzerland). A stock solution of compound 1 (10 mg/mL), was prepared in dimethyl sulfoxide (DMSO 99%: Alfa Aesar, Kandel, Germany), kept at −20 degrees C., and freshly diluted in the appropriate culture media before each assay. In all experiments, in-test concentrations of DMSO were kept below 2%.
(§2) Antifungal activity was evaluated by determining the MIC of compound 1 by the broth microdilution method, according to CLSI guidelines (reference documents M27-A3 for yeasts and M38-A2 for filamentous fungi). Briefly, cell or spore suspensions were prepared in RPMI-1640 broth medium (Biochrom, Berlin, Germany) buffered with 3-(N-morpholino)propane sulfonic acid (MOPS) (Sigma-Aldrich, St. Louis, MO, USA) (henceforth referred to as RPMI) from fresh cultures of the different strains of fungi. For yeasts, the inoculum was adjusted to 0.5-2.5×10^3 CFU/mL. For filamentous fungi, the inoculum was adjusted to 1-3×10^3 CFU/mL for dermatophytes, and 0.4-5×10^4 CFU/mL for all other strains. […] Sterility and growth controls were included in each assay. The 96-well flat-bottomed untreated polystyrene microtiter plates which were incubated for 48 h at 35° C., with the exception of Lichetheimia spp. which was incubated at 25° C. for 48 h, and the dermatophyte strains, which incubated for 5-7 days at 25° C. […] The minimal lethal concentration (MLC) was determined by spreading 20 μL of culture collected from wells showing no visible growth on SDA plates. The MLC was determined as the lowest concentration showing complete growth inhibition after 48 h at 35 degrees C., 48 h at 25 degrees C.

[2] = test system: Microsporum canis FF1; experiment: Antifungal MIC/MLC (broth microdilution); assay type: cell-based
Text: as §1, §2

[3] = test system: Nannizzia gypsea FF3; experiment: Antifungal MIC/MLC (broth microdilution); assay type: cell-based
Text: as §1, §2

[4] = test system: Trichophyton rubrum FF5; experiment: Antifungal MIC/MLC (broth microdilution); assay type: cell-based
Text: as §1, §2

[5] = test system: C. albicans ATCC 10231; experiment: Potassium ion efflux analysis; assay type: cell-based, Candida albicans; settings: 5 min
Procedure: In an embodiment, the potassium ion (K^+) efflux analysis was performed as follows ([FIG. 9]). Leakage of potassium ions is a common response to membrane-disrupting agents; therefore, extracellular K^+ was quantified by flame atomic absorption spectrometry, after 5 min of exposure to compound 1 ([FIG. 10]). […] Efflux of potassium was determined by quantification of extracellular K^+ by flame atomic absorption spectrometry. Cell suspensions of C. albicans ATCC 10231 were prepared in the same manner as described for PI influx assay, and test conditions were also the same. After 5 min of exposure, cells were centrifuged for 10 min at 3500 rpm and the supernatants were filtrated using a cellulose acetate syringe filter with a 0.22 µm pore size. Samples were analyzed with a AAnalyst 200 Atomic Absorption Spectrometer (Perkin Elmer). Four independent assays were performed and the data are presented as percentage of control (untreated cells as […] of K^+).

**Q.** For `C[C@H](CCC(=O)NCCN)[C@H]1CC[C@H]2[C@@H]3CC[C@@H]4C[C@H](O)CC[C@]4(C)[C@H]3C[C@H](O)[C@]12C` [Compound 1, (R)—N-(2-aminoethyl)-4-((3R,5R,8R,9S,10S,12S,13R,14S,17R)-3,12-dihydroxy-10,13-dimethylhexadecahydro-1H-cyclopenta[a]phenanthren-17-yl) pentanamida], which MIC [1] is on record?
**A.** The MIC was 64 µg/mL (≈ 147 µM).

**Q.** What about the MLC [1] of the same compound?
**A.** Its MLC is 64 µg/mL (≈ 147 µM).

**Q.** What about the MIC [2] of the same compound?
**A.** The MIC was 64 µg/mL (≈ 147 µM).

**Q.** What about the MLC [2] of the same compound?
**A.** The MLC was 128 µg/mL (≈ 294 µM).

**Q.** And the MIC [3]?
**A.** The MIC was 32 µg/mL (≈ 73.6 µM).

**Q.** And the MLC [3]?
**A.** The MLC was 32 µg/mL (≈ 73.6 µM).

**Q.** And the MIC [4]?
**A.** Its MIC is 32 µg/mL (≈ 73.6 µM).

**Q.** What about the MLC [4] of the same compound?
**A.** Its MLC is 64 µg/mL (≈ 147 µM).

**Q.** And the “levels of extracellular K+ vs untreated control” value ([5]; 128, 64, and 32 μg/mL (2×MIC, MIC, ½×MIC))?
**A.** The value was “significant levels of extracellular K”.

**Q.** What does the source list for `OC(Cn1cncn1)(Cn1cncn1)c1ccc(F)cc1F` [Fluconazole, reference compound]?
**A.** MIC ([1]; ATCC10231, read-out: MIC): 2 µg/mL (≈ 6.53 µM); MIC ([2]; read-out: MIC): 32 µg/mL (≈ 104 µM); MIC ([3]; read-out: MIC): 32 µg/mL (≈ 104 µM); MIC ([4]; read-out: MIC): 16 µg/mL (≈ 52.2 µM); levels of extracellular K+ vs untreated control ([5]; 8 μg/mL): not
